Measured values from PMC9743094, “Synthesis and Evaluation of Polymyxins Bearing Reductively Labile Disulfide-Linked Lipids” (Journal of Medicinal Chemistry, 2022).
≈ marks a conversion by molar mass, not a printed value. Positions of bridges follow the written chain, without caps; N, C: chain ends. Non-standard residues stand in square brackets, D forms with d. Residues, ends and D or L forms follow the SMILES beside them. *: point of attachment. Phenylthio(4-OPh) = c1ccc(Oc2ccc(S*)cc2)cc1; S(2-cyclohexylethyl) = C1CCC(CCS*)CC1; X6 = c1ccc(-c2ccc(S*)cc2)cc1; Dab = NCC[C@H](N)C(=O)O

How the values were obtained:
Format in all cases: cell-based
[1] = system: A. baumannii (ATCC 19606); settings: ATCC 19606
Procedure: (§1) Minimum inhibitory concentrations (MICs) on relevant Gram-negative bacteria were determined by broth microdilution, in accordance with CLSI guidelines. Indicated bacteria were taken from glycerol stocks and incubated overnight on blood agar at 37 °C. Well-isolated colonies were taken, suspended in TSB (5 mL), and grown to an OD600 of 0.5. Compounds to be tested were dissolved in DMSO (6.4 mg/mL), diluted in cation-adjusted Mueller–Hinton Broth (CAMHB) (12.5 and 20 μg/mL Mg^2+ and Ca^2+, respectively), and diluted serially on polypropylene microtiter plates. To the diluted compounds (50 μL per well) was added 50 μL of relevant bacterial suspension, to yield a final concentration of 10^6 CFU/mL. Plates were covered by adhesive gas-permeable membranes and incubated at 37 °C. MIC was read out as the lowest concentration that inhibited visual bacterial growth. Shown values are consistent results from at least duplicate experiments.

E. coli (ATCC 25922) = settings: ATCC 25922
Procedure: as §1

[2] = system: K. pneumoniae (ATCC 13883); settings: ATCC 13883
Procedure: as §1

[3] = system: P. aeruginosa (ATCC 27853); settings: ATCC 27853
Procedure: as §1

Row | SMILES | MIC A. baumannii (ATCC 19606) [1] [µg/mL] | MIC E. coli (ATCC 25922) (E. coli (ATCC 25922)) [µg/mL] | MIC K. pneumoniae (ATCC 13883) [2] [µg/mL] | MIC P. aeruginosa (ATCC 27853) [3] [µg/mL]
1 | CC(C)C[C@@H]1NC(=O)[C@@H](Cc2ccccc2)NC(=O)[C@H](CCN)NC(=O)[C@@H](NC(=O)[C@H](CCN)NC(=O)[C@@H](NC(=O)[C@H](CSSc2ccc(Oc3ccccc3)cc2)NC(=O)CN)[C@@H](C)O)CCNC(=O)[C@H]([C@@H](C)O)NC(=O)[C@H](CCN)NC(=O)[C@H](CCN)NC1=O [Compound 32a] (H-GC(Phenylthio(4-OPh))T[Dab][Dab][Dab][dF]L[Dab][Dab]T; lactam 5-C) | 32 (≈ 24.2 µM) | 8 (≈ 6.04 µM) | 4 (≈ 3.02 µM) | 8 (≈ 6.04 µM)
2 | CC(C)C[C@@H]1NC(=O)[C@@H](Cc2ccccc2)NC(=O)[C@H](CCN)NC(=O)[C@@H](NC(=O)[C@H](CCN)NC(=O)[C@@H](NC(=O)[C@H](N)CSSc2ccc(-c3ccccc3)cc2)[C@@H](C)O)CCNC(=O)[C@H]([C@@H](C)O)NC(=O)[C@H](CCN)NC(=O)[C@H](CCN)NC1=O [Compound 29b] (H-[dC](X6)T[Dab][Dab][Dab][dF]L[Dab][Dab]T; lactam 4-C) | 8 (≈ 6.4 µM) | 8 (≈ 6.4 µM) | 2 (≈ 1.6 µM) | 8 (≈ 6.4 µM)
3 | CC(C)C[C@@H]1NC(=O)[C@@H](Cc2ccccc2)NC(=O)[C@H](CCN)NC(=O)[C@@H](NC(=O)[C@H](CCN)NC(=O)[C@@H](NC(=O)[C@@H](CSSc2ccc(Oc3ccccc3)cc2)NC(=O)CN)[C@@H](C)O)CCNC(=O)[C@H]([C@@H](C)O)NC(=O)[C@H](CCN)NC(=O)[C@H](CCN)NC1=O [Compound 32b] (H-G[dC](Phenylthio(4-OPh))T[Dab][Dab][Dab][dF]L[Dab][Dab]T; lactam 5-C) | 8 (≈ 6.04 µM) | 8 (≈ 6.04 µM) | 4 (≈ 3.02 µM) | 4 (≈ 3.02 µM)
4 | CC(C)C[C@@H]1NC(=O)[C@@H](Cc2ccccc2)NC(=O)[C@H](CCN)NC(=O)[C@@H](NC(=O)[C@H](CCN)NC(=O)[C@@H](NC(=O)[C@H](N)CSSc2ccc(Oc3ccccc3)cc2)[C@@H](C)O)CCNC(=O)[C@H]([C@@H](C)O)NC(=O)[C@H](CCN)NC(=O)[C@H](CCN)NC1=O [Compound 30b] (H-[dC](Phenylthio(4-OPh))T[Dab][Dab][Dab][dF]L[Dab][Dab]T; lactam 4-C) | 4 (≈ 3.16 µM) | 4 (≈ 3.16 µM) | 2 (≈ 1.58 µM) | 4 (≈ 3.16 µM)
5 | CC(C)C[C@@H]1NC(=O)[C@@H](Cc2ccccc2)NC(=O)[C@H](CCN)NC(=O)[C@@H](NC(=O)[C@H](CCN)NC(=O)[C@@H](NC(=O)[C@@H](N)CSSCCC2CCCCC2)[C@@H](C)O)CCNC(=O)[C@H]([C@@H](C)O)NC(=O)[C@H](CCN)NC(=O)[C@H](CCN)NC1=O [Compound 19a] (H-C(S(2-cyclohexylethyl))T[Dab][Dab][Dab][dF]L[Dab][Dab]T; lactam 4-C) | 32 (≈ 26.5 µM) | 8 (≈ 6.62 µM) | 4 (≈ 3.31 µM) | 4 (≈ 3.31 µM)
6 | CC(C)C[C@@H]1NC(=O)[C@@H](Cc2ccccc2)NC(=O)[C@H](CCN)NC(=O)[C@@H](NC(=O)[C@H](CCN)NC(=O)[C@@H](NC(=O)[C@@H](N)CSSc2ccc(-c3ccccc3)cc2)[C@@H](C)O)CCNC(=O)[C@H]([C@@H](C)O)NC(=O)[C@H](CCN)NC(=O)[C@H](CCN)NC1=O [Compound 29a] (H-C(X6)T[Dab][Dab][Dab][dF]L[Dab][Dab]T; lactam 4-C) | 32 (≈ 25.6 µM) | 4 (≈ 3.2 µM) | 4 (≈ 3.2 µM) | 8 (≈ 6.4 µM)
